In US20250302712A1, “COMPOSITION FOR SKIN MOISTURIZING COMPRISING PHENYLLACTIC ACID” (AMOREPACIFIC CORPORATION, priority 2024, published 2025):

Test system: HAS2 (Hyaluronan synthase 2)
Assay: HAS2 gene expression in blue light irradiated human keratinocytes (HaCaT), Taqman real-time PCR
Format: cell-based
Conditions: blue light 410 nm 120 J/cm^2, PLA 50 μM (8.3 ppm)
Method: The Lactobacillus plantarum APsulloc 331261 (KCCM11179P) strain used in Experimental Example above was inoculated into a medium containing MRS broth, phenylalanine at a concentration of 40 mM, and calcium carbonate at a concentration of 1%, and the culture medium was cultured for 3 days. The cells were removed by centrifugation, and 1 liter was prepared. An equal amount of ethyl acetate was added to the prepared culture medium and the reaction was performed, and the water layer and the ethyl acetate layer of the culture medium were waited for separation. The separated ethyl acetate layer was heated and distilled, and an appropriate amount of water (about 100 mL) was added to the remaining concentrate to prepare a Lactobacillus culture extract containing phenyllactic acid. […]
In addition, the hyaluronic acid production promotion effect of the culture medium of Lactobacillus strains prepared as shown in Table 1 was compared. The strains Lactobacillus plantarum APsulloc 331261 (KCCM11179P), Lactobacillus plantarum KCTC3108, Lactobacillus acidophilus KCTC3164, and Lactobacillus sakei KTCT3603 were inoculated into MRS broth, and 0.5% of the culture medium static-cultured at 35° C. for 3 days was added, and the gene expression amount of HAS2 (Hyaluronan synthase 2) was measured in the same manner as above.

`O=C(O)C(O)Cc1ccccc1` (stereo not shown) [PLA, Phenyllactic acid] was tested, and the HAS2 gene expression was “significantly improved the decrease in HAS2 gene expression caused by blue light”.
